Experimental data taken from patent US20230144023A1, “USE OF BUTYLPHTHALIDE AND DERIVATIVE THEREOF” (CSPC NBP PHARMACEUTICAL CO., LTD, priority 2020, published 2023).
Read-outs that look alike come from different tables or passages of the source.

What was measured:
[1] = system: paclitaxel (albumin bound) chemotherapy-induced peripheral neuropathy; assay: Paclitaxel (albumin bound) chemotherapy-induced peripheral neuropathy in rats, butylphthalide intraperitoneal injection (Example 1); format: in vivo, SD (Sprague Dawley) rats; settings: NBP 1.5, 5 and 15 mg/kg bid i.p., compared with the model group
Method: The normal group was administered with 0.9% normal saline (0.9% INJ NS) at the same frequency. The animal grouping, the administration method, and the doses are detailed in Table 3. Based on the thermal pain threshold baselines and the body weights of the rats, the rats with the baseline values ranging from 3 to 6 s were selected, and were equally grouped in accordance with the above Table 3. […] (2) Thermal pain threshold: IITC Life Science Electronic Von Frey Anesthesio meter was used and the intensity of the light source was adjusted to obtain a baseline of thermal pain threshold of about 3-6 s. […] The rats were placed in a plastic compartment on a glass plate, to make the planta centers of the rats be exposed to the light source.

[2] = system: paclitaxel (albumin bound) chemotherapy-induced peripheral neuropathy; assay: Paclitaxel (albumin bound) chemotherapy-induced peripheral neuropathy in rats, butylphthalide intragastric administration (Example 2); format: in vivo, SD (Sprague Dawley) rats; settings: compared with the model group
Method: The model group was given vegetable oil at the same frequency and with the same administration method as NBP. The normal group was given normal saline at the same frequency and with the same administration method as ab-PTX, and was given vegetable oil at the same frequency and with the same administration method as NBP. […] (2) Thermal pain threshold: measurements were performed on days −1, 7, and 14. Method: IITC Life Science Electronic Von Frey Anesthesio meter was used and the intensity of the light source was adjusted to obtain a baseline of thermal pain threshold of about 3-6 s. […] The rats were placed in a plastic compartment on a glass plate, to make the planta centers of the rats be exposed to the light source. […] (3) Mechanical stimulus pain threshold: measurements were performed on days 0, 6, and 13. Method: the rats were placed in a plastic compartment on a wire mesh, left to stand still for 15 min, stimulated using a stimulation probe with a diameter of 0.4 mm of the IITC Life Science Electronic Von Frey Anesthesio meter at the planta centers of the rats by gradually increasing the force until reflexive withdrawal of the rats.

[3] = system: JIMT-1 xenograft tumor; assay: Influence of NBP on antitumor efficacy of ab-PTX against JIMT-1 xenograft tumor (Example 4); format: in vivo, Nu/Nu mice
Method: After in vitro resuscitation and passage of JIMT-1 cells to a sufficient amount, the cells were counted by a microscope, and diluted with a serum-free medium to adjust the cell count to about 1×10^8 cells/mL. The cell suspension was kept in an ice-water bath. […] Monotherapy group of ab-PTX: intravenous injection of ab-PTX at 15 mg/kg once every week, qw (on days 0, 7, 14, 21, and 28). Administration period: 28 days. Administration volume: 10 mL/kg. Monotherapy group of NBP: […] The administration volume was 10 mL/kg. […] The administration period was 28 days. The administration volume was 10 mL/kg. The solvent group was given normal saline at the same frequency and with the same method as ab-PTX, and was given vegetable oil at the same frequency and with the same method as NBP. […] Animals were weighed at set time once per day after the commencement of administration. At the end of the experiment, after the animals were euthanized by CO2 asphyxiation, the tumors were excised and weighed.

[4] = system: A549; assay: In vitro tumor cell proliferation, MTT (Example 5); format: cell-based; settings: Homo sapiens, 30 μM NBP alone, 72 h, read-out: Inhibition rate
Method: (§1) This experiment includes a monotherapy group of ab-PTX, a combined therapy group (ab-PTX/NBP), and an NBP group. Different drug concentration gradients were set for each group.
(§2) ab-PTX/NBP group: the final concentration of NBP was 30 μM, and the concentration gradient of ab-PTX was the same as that of the monotherapy group.
(§3) Monotherapy group of NBP: NBP was 2× serially diluted from an initial concentration of 480 μM to 8 concentrations: 480, 240, 120, 60, 30, 15, 7.5, and 3.75 μM, respectively.
(§4) The action time of the drug was 72 h.
(§5) 24 h after adherence, 100 μL of the culture solution containing different concentration gradients of ab-PTX was added to each well of the monotherapy group of ab-PTX; 100 μL of the culture solution containing different concentration gradients of ab-PTX and 30 μM NBP was added to each well of the combined therapy group of ab-PTX/NBP; 100 μL of the culture solution containing different concentration gradients of NBP was added to each well of the monotherapy group of NBP; 3 repeated wells were provided for each concentration of each drug, and the blank wells (only culture medium was present) and the normal wells (drug concentration was 0) were provided.
(§6) The experiment was repeated three times, and the IC50 value was expressed as the mean±SD of the results of the 3 experiments.

[5] = system: HT29; assay: In vitro tumor cell proliferation, MTT (Example 5); format: cell-based; settings: Homo sapiens, HT-29, 30 μM NBP alone, 72 h, read-out: Inhibition rate
Method: as §1, §2, §3, §4, §5, §6

[6] = system: JIMT-1; assay: In vitro tumor cell proliferation, MTT (Example 5); format: cell-based; settings: Homo sapiens, 30 μM NBP alone, 72 h, read-out: Inhibition rate
Method: as §1, §2, §3, §4, §5, §6

[7] = system: MDA-MB-231; assay: In vitro tumor cell proliferation, MTT (Example 5); format: cell-based; settings: Homo sapiens, 30 μM NBP alone, 72 h, read-out: Inhibition rate
Method: as §1, §2, §3, §4, §5, §6

[8] = system: SK-OV-3; assay: In vitro tumor cell proliferation, MTT (Example 5); format: cell-based; settings: Homo sapiens, 30 μM NBP alone, 72 h, read-out: Inhibition rate
Method: as §1, §2, §3, §4, §5, §6

[9] = system: MM.1S; assay: In vitro tumor cell proliferation, MTT (Example 7); settings: Homo sapiens, MM1.S, 72 h
Method: (§7) This experiment includes a monotherapy group of Bortezomib, a combined therapy group (Bortezomib/NBP), and a monotherapy group of NBP. Different drug concentration gradients were set for each group.
(§8) Monotherapy group of Bortezomib: (1) MM.1S, Jeko-1, and HT29 cells: Bortezomib was 1.5× serially diluted from an initial concentration of 20 nM to 8 concentrations: 20, 13.33, 8.89, 5.93, 3.95, 2.63, 1.76, and 1.17 nM, respectively; (2) A549 cells: Bortezomib was 2×serially diluted from an initial concentration of 200 nM to 8 concentrations: 200, 100, 50, 25, 12.5, 6.25, 3.13, and 1.56 nM, respectively; and (3) DU145 cells: Bortezomib was 2× serially diluted from an initial concentration of 100 nM to 8 concentrations: 100, 50, 25, 12.5, 6.25, 3.13, 1.56, and 0.78 nM, respectively.
(§9) A certain number of conventionally cultured cells in logarithmic growth phase were inoculated in a 96-well plate with 100 μL per well. […] For adherent cells HT29, A549, and DU145, the above drugs were added 24 h after adherence. 3 replicate wells were set for each concentration of each drug, and blank wells (only culture medium was present, and no tumor cells were inoculated) and normal wells (a culture medium inoculated with tumor cells, drug concentration was 0) were set. The drugs functioned for 72 h, then MTT working solution (5 mg/mL) was added at 20 μL per well; after functioning at 37° C. for 4 h, the supernatant was removed, 150 μL of DMSO (analytically pure) was added; the mixture was fully mixed using a microplate oscillator, the plate was wiped clean, and the optical density (OD) at 550 nm was measured using a microplate reader.
(§10) The cell growth inhibition rate was computed using the following equation:
(§11) Inhibition rate (%)=(OD valuenormal well−OD valueadministration well)/(OD valuenormal well−OD valueblank well)×100%
(§12) Based on the inhibition rate of each concentration, the median inhibitory concentration IC50 of the drug was computed using SPSS19.0.

[10] = system: Jeko-1; assay: In vitro tumor cell proliferation, MTT (Example 7); settings: Homo sapiens, JeKo-1, 72 h
Method: as §7, §8, §9, §10, §11, §12

[11] = system: A549; assay: In vitro tumor cell proliferation, MTT (Example 7); settings: Homo sapiens, A549, 72 h
Method: as §7, §8, §9, §10, §11, §12

[12] = system: DU145; assay: In vitro tumor cell proliferation, MTT (Example 7); settings: Homo sapiens, DU-145, 72 h
Method: as §7, §8, §9, §10, §11, §12

[13] = read-out: Inhibition rate, First dose
[14] = read-out: Inhibition rate, Mean ± SD
[15] = read-out: Inhibition rate, Second dose
[16] = read-out: Inhibition rate, Third dose

## CCCCC1OC(=O)c2ccccc21 (stereo not drawn) [NBP, 3-n-butylphthalide]
[1]; D4-16
  body weights of the rats: not significantly changed
[1]; D7-13, P<0.05 or P<0.01
  thermal pain threshold (increase in model rats): significantly decreased
[2]; NBP 3, 10 and 30 mg/kg bid, duloxetine hydrochloride 15 mg/kg qd, intragastric, throughout administration
  body weights of the rats: not obviously changed
[2]; day 6, NBP 30 mg/kg bid p.o., P<0.05
  mechanical pain threshold: significantly decreased
[2]; day 7, NBP 30 mg/kg bid p.o., P<0.05
  thermal pain threshold: significantly decreased
[2]; day 13, NBP 3 mg/kg bid p.o.
  mechanical pain threshold: had a decreasing trend, but did not have statistical difference
[2]; day 13, NBP 10 and 30 mg/kg bid, duloxetine hydrochloride 15 mg/kg qd, P<0.05
  mechanical pain threshold: significantly decreased
[2]; day 14, NBP 3, 10 and 30 mg/kg bid, duloxetine hydrochloride 15 mg/kg qd, P<0.05
  thermal pain threshold: significantly decreased
[3]; NBP 60 mg/kg bid gavage alone
  Inhibition rate (tumor weight): 4.0%
[3]; NBP 60 mg/kg bid gavage alone, mean ± SD, n=8
  Tumor weight: 0.9570 ± 0.2529 g
[3]; ab-PTX 15 mg/kg qw i.v., NBP 60 mg/kg bid gavage, compared with the solvent group
  tumor growth: not obviously affected
[3]; ab-PTX 15 mg/kg qw i.v., NBP 6, 20, 60 mg/kg bid gavage, 28 days
  body weights of the mice: no significant difference
[4]
  inhibition at 30 µM: 5.12 ± 7.36%
[5]
  inhibition at 30 µM: 10.1 ± 7.94%
[6]
  inhibition at 30 µM: 7.39 ± 13.2%
[7]
  inhibition at 30 µM: 3.43 ± 3.95%
[8]
  inhibition at 30 µM: 12.4 ± 7.41%
[9]; [13]
  inhibition at 30 µM: 0.16%
[9]; [14]
  inhibition at 30 µM: 12.1 ± 11.1%
[9]; [15]
  inhibition at 30 µM: 14.1%
[9]; [16]
  inhibition at 30 µM: 22.1%
[10]; [13]
  inhibition at 30 µM: -7.67%
[10]; [14]
  inhibition at 30 µM: -11.5 ± 6.32%
[10]; [15]
  inhibition at 30 µM: -18.8%
[10]; [16]
  inhibition at 30 µM: -8.11%
[11]; [13]
  inhibition at 30 µM: -11.1%
[11]; [14]
  inhibition at 30 µM: 1.11 ± 10.8%
[11]; [15]
  inhibition at 30 µM: 9.68%
[11]; [16]
  inhibition at 30 µM: 4.74%
[12]; [13]
  inhibition at 30 µM: -2.22%
[12]; [14]
  inhibition at 30 µM: 4.03 ± 5.88%
[12]; [15]
  inhibition at 30 µM: 9.44%
[12]; [16]
  inhibition at 30 µM: 4.87%
